Laboratory results published in ChEMBL document CHEMBL1201862, “PubChem BioAssay data set” (2004).
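Exposure lasted 48 hours, with cells grown in 96-well plates and compounds tested at five concentrations. At the GI50, growth is halved.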 The source made the active and inactive calls. Rule as the data show it: active = GI50 up to about 1.1 µM and inactive = higher.

Key:
Test in all cases: inhibition of tumour cell growth, NCI panel, 48 h
[1] = system: IGROV-1
[2] = system: UACC-257
[3] = system: NCI-H460
[4] = system: A498
[5] = system: SNB-19
[6] = system: MDA-N
[7] = system: NCI/ADR-RES
[8] = system: NCI-H226
[9] = system: MDA-MB-435
[10] = system: SK-MEL-28
[11] = system: MCF7
[12] = system: OVCAR-3
[13] = system: HCT-15
[14] = system: HCT-116
[15] = system: K562
[16] = system: 786-0
[17] = system: HOP-62
[18] = system: OVCAR-5
[19] = system: SK-MEL-2

SMILES | GI50 [1] | GI50 [2] | GI50 [3] | GI50 [4] | GI50 [5] | GI50 [6] | GI50 [7] | GI50 [8] | GI50 [9] | GI50 [10] | GI50 [11] | GI50 [12] | GI50 [13] | GI50 [14] | GI50 [15] | GI50 [16] | GI50 [17] | GI50 [18] | GI50 [19]
OCCn1cnc2c(SCc3ccccc3)ncnc21 | > 100 µM (inactive) | > 100 µM (inactive) | 19.6 µM (inactive) | > 100 µM (inactive) | > 100 µM (inactive) | > 100 µM (inactive) | > 100 µM (inactive) | > 100 µM (inactive) | > 100 µM (inactive) | > 100 µM (inactive) | > 100 µM (inactive) | > 100 µM (inactive) | 11.9 µM | 48.8 µM (inactive) | 79.4 µM (inactive) | > 100 µM (inactive) | > 100 µM (inactive) | > 100 µM (inactive) | > 100 µM (inactive)
O=C(O)c1cc(C(=O)O)cc(N2C(=O)c3ccccc3C2=O)c1 | > 100 µM (inactive) | > 100 µM (inactive) | > 100 µM (inactive) | > 100 µM (inactive) | > 100 µM (inactive) | > 100 µM (inactive) | > 100 µM (inactive) | > 100 µM (inactive) | > 100 µM (inactive) | > 100 µM (inactive) | > 100 µM (inactive) | > 100 µM (inactive) | > 100 µM | > 100 µM (inactive) | > 100 µM (inactive) | > 100 µM (inactive) | > 100 µM (inactive) | > 100 µM (inactive) | > 100 µM (inactive)
N#Cc1nc(COCCOCc2ccccc2)oc1N | > 100 µM (inactive) | > 100 µM (inactive) | > 100 µM (inactive) | > 100 µM (inactive) | > 100 µM (inactive) | > 100 µM (inactive) | > 100 µM (inactive) | > 100 µM (inactive) | > 100 µM (inactive) | > 100 µM (inactive) | > 100 µM (inactive) | > 100 µM (inactive) | > 100 µM | > 100 µM (inactive) | > 100 µM (inactive) | > 100 µM (inactive) | > 100 µM (inactive) | > 100 µM (inactive) | > 100 µM (inactive)
Cc1cccc(NC(=S)NNC(=O)c2cc(-c3ccccc3)nc3ccccc23)c1 | 33.6 µM (inactive) | 33.4 µM (inactive) | 30.9 µM (inactive) | 20.2 µM (inactive) | 37.8 µM (inactive) | 45.7 µM (inactive) | 36.7 µM (inactive) | 34.4 µM (inactive) | 28.4 µM (inactive) | 38.4 µM (inactive) | 20.5 µM (inactive) | 26.8 µM (inactive) | 36.7 µM | 20.8 µM (inactive) | 41.5 µM (inactive) | 29.7 µM (inactive) | 32 µM (inactive) | 35.5 µM (inactive) | 21.8 µM (inactive)
O=C(CCCN1CCC2(CC1)CC(=O)N(N1CCOCC1)C2=O)c1ccc(F)cc1 | > 100 µM (inactive) | > 100 µM (inactive) | > 100 µM (inactive) | > 100 µM (inactive) | > 100 µM (inactive) | > 100 µM (inactive) | > 100 µM (inactive) | 99.3 µM (inactive) | > 100 µM (inactive) | > 100 µM (inactive) | > 100 µM (inactive) | > 100 µM (inactive) | > 100 µM | > 100 µM (inactive) | > 100 µM (inactive) | > 100 µM (inactive) | > 100 µM (inactive) | > 100 µM (inactive) | > 100 µM (inactive)
CC(C)SC(=S)Sc1c(Cl)c(Cl)nc(Cl)c1Cl | 7.33 µM (inactive) | 3.52 µM (inactive) | 17.1 µM (inactive) | 17.1 µM (inactive) | 7.55 µM (inactive) | 5.27 µM (inactive) | 20.3 µM (inactive) | 24.9 µM (inactive) | 7.38 µM (inactive) | 18.7 µM (inactive) | 4.06 µM (inactive) | 1.85 µM (inactive) | 2.97 µM | 10.5 µM (inactive) | 2.97 µM (inactive) | 2.33 µM (inactive) | 5.85 µM (inactive) | 16.3 µM (inactive) | 7.82 µM (inactive)
